From patent US12522634B2, “Cyclophilin inhibitors and uses thereof” (Farsight Medical Technology (Shanghai) Co., Ltd., priority 2020, dated 2026)
Read-outs that look alike come from different tables or passages of the source. Starred links: 1 amine or outer side, 2 acyl side, 3 side chain; linkers in the order of their positions; H or OH if unused. Non-standard residues stand in square brackets, D forms with d. Residues, ends and D or L forms follow the SMILES beside them. ξ: configuration not given here. NMeBmt(3-oxo) = C/C=C/C[C@@H](C)C(=O)[C@H](NC)C(=O)O; MeBmt = C/C=C/C[C@@H](C)[C@@H](O)[C@H](NC)C(=O)O; ξThr(3S) = C[C@H](O[*:3])C(N[*:1])C(=O)[*:2]; X1 = CN([C@H](OCCN1CCOCC1)C(=O)[*:2])[*:1]; X2 = CN(C)CCO[C@H](C(=O)[*:2])N(C)[*:1]; NMeL = CN[C@@H](CC(C)C)C(=O)O; NMeV = CN[C@H](C(=O)O)C(C)C; Nva = CCC[C@H](N)C(=O)O

Key:
permeabilized HepG2 = test: Calcium retention capacity (CRC) assay in permeabilized HepG2; assay type: cell-based; conditions: Homo sapiens
Protocol: Calcium Retention Capacity (CRC) Assay in Permeabilized HepG2
HepG2 cells were permeabilised with 100 μM digitonin for 10 min in ice cold buffer containing 1 mM EGTA. Following two wash steps to remove the digitonin, the cells were plated into 96 well black and clear plates at 1e^6 cell per well in 180 μL assay buffer containing 0.5 μM Calcium Green 5N. Compounds dilutions were made in DMSO to 1000-fold the final concentration, diluted 1:100 in assay buffer and added to the assay as 20 μL per well. The assay buffer contained 5 mM glutamate and 2.5 mM malate. The cell plate was immediately run on the FLIPR Tetra™ which added 5 μL of 200 μM (5 μM) calcium chloride every 5 minutes whilst reading the plate every 3 seconds. The area under the curve at each concentration of compound was calculated. EC50 values were calculated.
The assay as described above measures the loss of inhibition based on the release of calcium, which is determined by increased intensity of fluorescence reporting of the calcium-binding dye used in the assay.

Human CypA = Human CypA (Homo sapiens (Human), UniProt P62937); test: Cyclophilin peptidyl-prolyl isomerase functional assay (PPIase), CypA; assay type: biochemical; conditions: human recombinant enzyme, 10° C.; read-out: Inhibition (Ki, nM) Human CypA
Protocol: (§1) The compounds were supplied as a dry powder or oils and made up as a 10 mM stock solution in 100% DMSO. Subsequent dilutions were made in 100% DMSO for use in all assays.
(§2) Measurements were performed using an Agilent 8453 spectrophotometer. Assay buffer was cooled to 10° C. (with stirring) in a precision glass cuvette and inhibitor was added from a DMSO stock solution to afford a final concentration of <1% DMSO. A blank spectrum was obtained and then enzyme and substrate were added and the change in absorbance measured over 5 min. A first order rate was fitted to the absorbance data to obtain a rate constant (first 10 to 15 s were eliminated due to mixing). The catalytic rate was calculated from the enzymatic rate minus the background rate. The enzymatic rate constant, determined in duplicate at each inhibitor concentration, was plotted against inhibitor concentration and a non-linear fit by SigmaPlot generated a Ki.

[1] = molecular target: recombinant Calcineurin (CaN) (Homo sapiens (Human), UniProt P63098+Q08209); test: Calcineurin phosphatase inhibition assay without cyclophilin A; assay type: biochemical; conditions: RII phosphopeptide substrate, read-out: CaN Inhibition (IC50, nM) − CypA
Protocol: as §1
(§3) Calcineurin Phosphatase Inhibition Assay with and without Cyclophilin A
(§4) This colorimetric 96 well assay is designed for inhibitor screening of recombinant Calcineurin (CaN). […] In a 96-well plate, two dilution series were prepared, one with the cyclophilin A enzyme (7-point) and another without (4-point). An assay buffer/calcineurin/calmodulin master mix was added followed by the phosphopeptide substrate (RII). After incubation at 30° C. the reaction was stopped by the addition of malachite green/molybdate reagent. The coloured complex formed with liberated phosphate was quantified by reading the absorbance at 620 nm. The blank corrected data was plotted against inhibitor concentration to determine an IC50 value.

[2] = molecular target: recombinant Calcineurin (CaN) (Homo sapiens (Human), UniProt P62937+P63098+Q08209); test: Calcineurin phosphatase inhibition assay with cyclophilin A; assay type: biochemical; conditions: RII phosphopeptide substrate, read-out: CaN Inhibition (IC50, nM) + CypA
Protocol: as §1, §3, §4

Human CypD = Human CypD (Homo sapiens (Human), UniProt P30405); test: Cyclophilin peptidyl-prolyl isomerase functional assay (PPIase), CypD; assay type: biochemical; conditions: human recombinant enzyme, 10° C.; read-out: Inhibition (Ki, nM) Human CypD
Human CypD, sequence (P30405 30-207): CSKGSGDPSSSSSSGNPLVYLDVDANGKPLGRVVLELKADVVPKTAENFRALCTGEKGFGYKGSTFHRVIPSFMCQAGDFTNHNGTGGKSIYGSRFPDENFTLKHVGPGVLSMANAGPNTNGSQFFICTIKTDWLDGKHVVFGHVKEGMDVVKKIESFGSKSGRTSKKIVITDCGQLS
Protocol: as §1, §2

[3] = permeabilized HepG2, area under the curve, read-out: Calcium Retention Capacity EC50

| Structure (SMILES) | EC50 (permeabilized HepG2; HepG2, read-out: Calcium Retention Capacity EC50 (nM)) [nM] | EC50 (permeabilized HepG2; [3]) [nM] | Ki (Human CypA) [nM] | IC50 [1] [nM] | IC50 [2] [nM] | Ki (Human CypD) [nM] |
| --- | --- | --- | --- | --- | --- | --- |
| C/C=C/C[C@@H](C)[C@@H](O)[C@H]1C(=O)N[C@@H](CC)C(=O)N(C)[C@H](OCCN(C)C)C(=O)N(C)[C@@H](CC(C)C)C(=O)N[C@@H](C(C)C)C(=O)N(C)[C@@H](CC(C)C)C(=O)N[C@@H](C)C(=O)N[C@H](C)C(=O)N(C)[C@@H](CC(C)C)C(=O)N(C)[C@@H](CC(C)C)C(=O)N(C)[C@@H](C(C)C)C(=O)N1C [Compound 1, reference compound] | 916 |  |  |  |  |  |
| C/C=C/C[C@@H](C)[C@@H](O)[C@H]1C(=O)NC([C@H](C)O)C(=O)N(C)[C@H](OCCN(C)C)C(=O)N(C)[C@@H](CC(C)C)C(=O)N[C@@H](C(C)C)C(=O)N(C)[C@@H](CC(C)C)C(=O)N[C@@H](C)C(=O)N[C@H](C)C(=O)N(C)[C@@H](CC(C)C)C(=O)N(C)[C@@H](CC(C)C)C(=O)N(C)[C@@H](C(C)C)C(=O)N1C (stereo partly drawn) [Compound 2] (cyclo(A[dA][NMeL][NMeL][NMeV][MeBmt][ξThr(3S)][X2][NMeL]V[NMeL])) |  | > 10000 | 50 | > 10000 | 5000 | 78 |
| C/C=C/C[C@@H](C)[C@@H](O)[C@H]1C(=O)N[C@@H](C(C)C)C(=O)N(C)[C@H](OCCN(C)C)C(=O)N(C)[C@@H](CC(C)C)C(=O)N[C@@H](C(C)C)C(=O)N(C)[C@@H](CC(C)C)C(=O)N[C@@H](C)C(=O)N[C@H](C)C(=O)N(C)[C@@H](CC(C)C)C(=O)N(C)[C@@H](CC(C)C)C(=O)N(C)[C@@H](C(C)C)C(=O)N1C [Compound 3] (cyclo(A[dA][NMeL][NMeL][NMeV][MeBmt]V[X2][NMeL]V[NMeL])) |  | 946 |  | 5510 | 1320 |  |
| C/C=C/C[C@@H](C)[C@@H](O)[C@H]1C(=O)N[C@@H](C(C)C)C(=O)N(C)[C@H](OCCN2CCOCC2)C(=O)N(C)[C@@H](CC(C)C)C(=O)N[C@@H](C(C)C)C(=O)N(C)[C@@H](CC(C)C)C(=O)N[C@@H](C)C(=O)N[C@H](C)C(=O)N(C)[C@@H](CC(C)C)C(=O)N(C)[C@@H](CC(C)C)C(=O)N(C)[C@@H](C(C)C)C(=O)N1C [Compound 4] (cyclo(A[dA][NMeL][NMeL][NMeV][MeBmt]V[X1][NMeL]V[NMeL])) |  | 320 |  | 4190 | 1320 |  |
| C/C=C/C[C@@H](C)C(=O)[C@H]1C(=O)N[C@@H](C(C)C)C(=O)N(C)[C@H](OCCN(C)C)C(=O)N(C)[C@@H](CC(C)C)C(=O)N[C@@H](C(C)C)C(=O)N(C)[C@@H](CC(C)C)C(=O)N[C@@H](C)C(=O)N[C@H](C)C(=O)N(C)[C@@H](CC(C)C)C(=O)N(C)[C@@H](CC(C)C)C(=O)N(C)[C@@H](C(C)C)C(=O)N1C [Compound 5] (cyclo(A[dA][NMeL][NMeL][NMeV][NMeBmt(3-oxo)]V[X2][NMeL]V[NMeL])) |  | > 10000 | 23 | > 10000 | > 10000 | 17 |
| C/C=C/C[C@@H](C)C(=O)[C@H]1C(=O)N[C@@H](C(C)C)C(=O)N(C)[C@H](OCCN2CCOCC2)C(=O)N(C)[C@@H](CC(C)C)C(=O)N[C@@H](C(C)C)C(=O)N(C)[C@@H](CC(C)C)C(=O)N[C@@H](C)C(=O)N[C@H](C)C(=O)N(C)[C@@H](CC(C)C)C(=O)N(C)[C@@H](CC(C)C)C(=O)N(C)[C@@H](C(C)C)C(=O)N1C [Compound 6] (cyclo(A[dA][NMeL][NMeL][NMeV][NMeBmt(3-oxo)]V[X1][NMeL]V[NMeL])) |  | > 10000 | 90 | > 10000 | > 10000 | 150 |
| C/C=C/C[C@@H](C)[C@@H](O)[C@H]1C(=O)N[C@@H](CCC)C(=O)N(C)[C@H](OCCN(C)C)C(=O)N(C)[C@@H](CC(C)C)C(=O)N[C@@H](C(C)C)C(=O)N(C)[C@@H](CC(C)C)C(=O)N[C@@H](C)C(=O)N[C@H](C)C(=O)N(C)[C@@H](CC(C)C)C(=O)N(C)[C@@H](CC(C)C)C(=O)N(C)[C@@H](C(C)C)C(=O)N1C [Compound 7] (cyclo(A[dA][NMeL][NMeL][NMeV][MeBmt][Nva][X2][NMeL]V[NMeL])) |  | 2370 |  | 3220 | 789 |  |
| C/C=C/C[C@@H](C)[C@@H](O)[C@H]1C(=O)N[C@@H](CCC)C(=O)N(C)[C@H](OCCN2CCOCC2)C(=O)N(C)[C@@H](CC(C)C)C(=O)N[C@@H](C(C)C)C(=O)N(C)[C@@H](CC(C)C)C(=O)N[C@@H](C)C(=O)N[C@H](C)C(=O)N(C)[C@@H](CC(C)C)C(=O)N(C)[C@@H](CC(C)C)C(=O)N(C)[C@@H](C(C)C)C(=O)N1C [Compound 8] (cyclo(A[dA][NMeL][NMeL][NMeV][MeBmt][Nva][X1][NMeL]V[NMeL])) |  | 1610 |  | 7830 | 636 |  |
| C/C=C/C[C@@H](C)[C@@H](O)[C@H]1C(=O)N[C@@H](CC)C(=O)N(C)[C@H](OCC/N=C(\C)N(C)C)C(=O)N(C)[C@@H](CC(C)C)C(=O)N[C@@H](C(C)C)C(=O)N(C)[C@@H](CC(C)C)C(=O)N[C@@H](C)C(=O)N[C@H](C)C(=O)N(C)[C@@H](CC(C)C)C(=O)N(C)[C@@H](CC(C)C)C(=O)N(C)[C@@H](C(C)C)C(=O)N1C [Compound 9] |  | 468 | 11 | 3880 | 2020 | 8.2 |
| C/C=C/C[C@@H](C)[C@@H](O)[C@H]1C(=O)N[C@@H](CC)C(=O)N(C)[C@H](OCC/N=C/N(C)C)C(=O)N(C)[C@@H](CC(C)C)C(=O)N[C@@H](C(C)C)C(=O)N(C)[C@@H](CC(C)C)C(=O)N[C@@H](C)C(=O)N[C@H](C)C(=O)N(C)[C@@H](CC(C)C)C(=O)N(C)[C@@H](CC(C)C)C(=O)N(C)[C@@H](C(C)C)C(=O)N1C [Compound 10] |  | 3200 | 14 | 3710 | 1830 | 9.7 |
| C/C=C/C[C@@H](C)[C@@H](O)[C@H]1C(=O)N[C@@H](CC)C(=O)N(C)[C@H](OCC(C)(C)N(C)C)C(=O)N(C)[C@@H](CC(C)C)C(=O)N[C@@H](C(C)C)C(=O)N(C)[C@@H](CC(C)C)C(=O)N[C@@H](C)C(=O)N[C@H](C)C(=O)N(C)[C@@H](CC(C)C)C(=O)N(C)[C@@H](CC(C)C)C(=O)N(C)[C@@H](C(C)C)C(=O)N1C [Compound 11] |  | 3320 | 25 | 1620 | 616 | 6 |
| C/C=C/C[C@@H](C)[C@@H](O)[C@H]1C(=O)N[C@@H](CC)C(=O)N(C)[C@H](OCC2(N(C)C)CC2)C(=O)N(C)[C@@H](CC(C)C)C(=O)N[C@@H](C(C)C)C(=O)N(C)[C@@H](CC(C)C)C(=O)N[C@@H](C)C(=O)N[C@H](C)C(=O)N(C)[C@@H](CC(C)C)C(=O)N(C)[C@@H](CC(C)C)C(=O)N(C)[C@@H](C(C)C)C(=O)N1C [Compound 12] |  |  | 6.5 |  |  | 6 |
